One data set has as its system A. baumannii. Type of data set: cell-based. In outline:
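Laboratory strains and 50 clinical isolates of A. baumannii were tested by CLSI broth microdilution, with serially diluted peptide (0.1-64 μg) and about 1×10^5 C.F.U. per well, incubated aerobically overnight at 35±2° C. MIC was read visually. MBC came from subculturing clear wells, as ≥99.9% inoculum reduction.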

The test system of another data set is human RBC. Description: Hemolysis of RBC. The format is cell-based. On the procedure: Varying amounts of peptide were incubated with the washed RBC for one hour at room temperature. Intact cells were pelleted by gentle centrifugation, and hemolysis of each sample was determined by absorption measurement at 450 nm. A positive control sample consisted of RBC lysed by the addition of 0.1% Triton, for which hemolysis was also determined by absorption measurement at 450 nm. Percentages of lysed RBC incubated with peptide were then calculated by the ratio of absorbances at 450 nm for the sample relative to the absorbance at 450 nm of the positive control sample. The MHC10 value was calculated as the minimum peptide concentration to induce 10% cell lysis.

The nature of data set [1]: Cytotoxicity against Jurkat cells (CellTiter Blue). Conditions: human. The format is cell-based, human. On the procedure: (§1) The cytotoxicities of selected peptides against human T-lymphocytes, in particular Jurkat cells, was determined by growing 100 uL Jurkat cells in RPMI (approx. 5×10^5 cells/ml density) overnight at 37° C. under 5% CO2 atmosphere, in microtiter plate wells, in the presence and absence of peptides. Control reactions either lacked peptide (negative cytotoxicity control), or contained a buffer to completely lyse Jurkat cells (positive cytotoxicity control). The viabilities of cells were then determined by addition of 20 uL CellTiter Blue dye (Promega) to each well, and incubation of cells for a further 3 hrs at 37° C. Fluorescence values were measured for 1 sec at 540 nm/615 nm, and expressed relative to fluorescence values for negative and positive cytotoxicity control samples. Comparison with a fully lysed control allowed the calculation of a percentage killing for each peptide concentration. The MCC10 value was calculated as the minimum peptide concentration required to induce 10% cytotoxicity.
In general terms: Resazurin is reduced to fluorescent resorufin, in cell work by metabolically active cells.

Another data set relates to Jurkat cells. As to the kind of experiment: Cytotoxicity against Jurkat cells (CellTiter Blue). Type of data set: cell-based, human. On the procedure:
as §1

Molecules are shown by their SMILES. Peptide text beside a SMILES is read from it. * marks the point of attachment. Biotin = O=C1N[C@H]2[C@H](CS[C@H]2CCCCC(=O)*)N1

Take `CC[C@H](C)[C@H](NC(=O)[C@H](Cc1c[nH]cn1)NC(=O)[C@H](CO)NC(=O)[C@H](CC(C)C)NC(=O)[C@H](CS)NC(=O)[C@H](CS)NC(=O)[C@H](CCCNC(=N)N)NC(=O)[C@H](CCSC)NC(=O)[C@@H](NC(=O)[C@@H]1CCCN1C(=O)[C@H](CCC(N)=O)NC(=O)[C@H](Cc1c[nH]cn1)NC(=O)[C@H](CS)NC(=O)CCCC[C@@H]1SC[C@@H]2NC(=O)N[C@@H]21)[C@@H](C)O)C(=O)N[C@@H](CCCNC(=N)N)C(=O)N[C@@H](CCCNC(=N)N)C(=O)N[C@@H](CCCNC(=N)N)C(=O)N[C@@H](Cc1ccccc1)C(=O)N[C@@H](CCCNC(=N)N)C(=O)N[C@@H](CC(C)C)C(=O)O` [Ac431] (Biotin-CHQPTMRCCLSHIRRRFRL-OH; N-terminus and C-terminus assumed): the “MIC (μM) for non-amidated Peptide” value in the data set on A. baumannii is 15 µM. The same molecule displayed an MHC10 in the data set with human RBC of 25 µM. In addition, in data set [1], the cytotoxicity at 12.5 μM was 4%, the cytotoxicity at 25 μM came out at 15% and the cytotoxicity at 50 μM amounted to 29%. In the data set on Jurkat cells, the MCC10 is 20 µM.

As to `CC[C@H](C)[C@H](NC(=O)[C@H](CCC(N)=O)NC(=O)[C@H](CCCNC(=N)N)NC(=O)[C@@H](NC(=O)[C@@H](NC(=O)[C@@H]1CCCN1C(=O)[C@@H]1CCCN1C(=O)[C@H](CCSC)NC(=O)[C@H](CCCNC(=N)N)NC(=O)[C@H](CC(N)=O)NC(=O)[C@@H](NC(=O)CNC(=O)[C@H](Cc1c[nH]c2ccccc12)NC(=O)CCCC[C@@H]1SC[C@@H]2NC(=O)N[C@@H]21)C(C)C)C(C)C)C(C)C)C(=O)N[C@@H](CC(C)C)C(=O)N[C@@H](CCCNC(=N)N)C(=O)N[C@@H](CO)C(=O)N[C@@H](CCC(=O)O)C(=O)N[C@@H](Cc1c[nH]c2ccccc12)C(=O)N[C@@H](CCCNC(=N)N)C(=O)N[C@@H](CC(N)=O)C(=O)N[C@@H](Cc1c[nH]c2ccccc12)C(=O)N[C@@H](CCCNC(=N)N)C(=O)N[C@@H](CCCCN)C(=O)O` [Ac436] (Biotin-WGVNRMPPVVRQILRSEWRNWRK-OH), in the data set with A. baumannii, the “MIC (μM) for non-amidated Peptide” value stood at 10 µM. Besides, the MHC10 in the data set with human RBC turned out to be 75 µM. Besides, in data set [1], the cytotoxicity at 12.5 μM came to 6%, the cytotoxicity at 25 μM amounted to 10% and the cytotoxicity at 50 μM is 32%. The molecule further came in with an MCC10 in the data set with Jurkat cells of 25 µM.

As for `CC(C)C[C@H](NC(=O)[C@H](CCC(N)=O)NC(=O)[C@H](CCCNC(=N)N)NC(=O)[C@H](Cc1ccccc1)NC(=O)[C@H](Cc1ccc(O)cc1)NC(=O)[C@H](CC(C)C)NC(=O)[C@H](Cc1c[nH]c2ccccc12)NC(=O)[C@H](Cc1ccccc1)NC(=O)[C@H](CCCNC(=N)N)NC(=O)[C@H](CCCNC(=N)N)NC(=O)[C@H](CO)NC(=O)[C@H](CC(=O)O)NC(=O)[C@H](CC(C)C)NC(=O)[C@H](Cc1c[nH]c2ccccc12)NC(=O)[C@H](Cc1ccccc1)NC(=O)[C@H](CC(=O)O)NC(=O)[C@H](CCCNC(=N)N)NC(=O)[C@H](CCCNC(=N)N)NC(=O)[C@H](C)NC(=O)[C@H](CCC(N)=O)NC(=O)[C@H](CO)NC(=O)[C@H](CCCNC(=N)N)NC(=O)CCCC[C@@H]1SC[C@@H]2NC(=O)N[C@@H]21)C(=O)N[C@@H](Cc1ccccc1)C(=O)O` [Ac474] (Biotin-RSQARRDFWLDSRRFWLYFRQLF-OH), the “MIC (μM) for non-amidated Peptide” value against A. baumannii is 25 µM. In addition, the MHC10 in the data set with human RBC was determined as 5 µM. Further, in data set [1], the cytotoxicity at 12.5 μM is 13%, the cytotoxicity at 25 μM stood at 20% and the cytotoxicity at 50 μM was 81%. In addition, the MCC10 in the data set with Jurkat cells is 10 µM.

The values are drawn from patent US20110262508A1, “ANTIMICROBIAL COMPOSITIONS, FORMULATIONS AND USES THEREOF” (priority 2007, published 2011).
